Reference: US9545105B2, “1-(heterocyclic carbonyl) piperidines” (BAYER INTELLECTUAL PROPERTY GMBH, priority 2010, dated 2017)

What was measured:
[1] = log P by HPLC on reversed-phase column (C 18), EEC Directive 79/831 Annex V.A8; assay type: physicochemical; settings: HPLC on reversed-phase column (C 18); 40° C.; 0.1% aqueous formic acid and acetonitrile; linear gradient 10% to 90% acetonitrile
Method: In table 1, the log P values were determined in accordance with EEC Directive 79/831 Annex V.A8 by HPLC (High Performance Liquid Chromatography) on a reversed-phase column (C 18), using the method described below: Temperature: 40° C.; Mobile phases: 0.1% aqueous formic acid and acetonitrile; linear gradient from 10% acetonitrile to 90% acetonitrile. Calibration was carried out using unbranched alkan-2-ones (comprising 3 to 16 carbon atoms) with known log P values (determination of the log P values by the retention times using linear interpolation between two successive alkanones). lambda-max-values were determined using UV-spectra from 200 nm to 400 nm and the peak values of the chromatographic signals.

Alternaria solani = assay: In vivo preventive test on Alternaria solani (tomato); settings: 500 ppm of active ingredient, evaluated 7 days after inoculation
Method: Solvent: 49 parts by weight of N,N-dimethylformamide Emulsifier: 1 part by weight of Alkylarylpolyglycolether To produce a suitable preparation of active compound, 1 part by weight of active compound is mixed with the stated amounts of solvent and emulsifier, and the concentrate is diluted with water to the desired concentration. To test for preventive activity, young plants are sprayed with the preparation of active compound at the stated rate of application. One day after this treatment, the plants are inoculated with an aqueous spore suspension of Alternaria solani. The plants remain for one day in an incubation cabinet at approximately 22° C. and a relative atmospheric humidity of 100%. Then the plants are placed in an incubation cabinet at approximately 20° C. and a relative atmospheric humidity of 96%. The test is evaluated 7 days after the inoculation. 0% means an efficacy which corresponds to that of the untreated control while an efficacy of 100% means that no disease is observed.

Pyrenophora teres = assay: In vivo preventive test on Pyrenophora teres (barley); settings: 500 ppm of active ingredient, evaluated 7-9 days after inoculation
Method: Solvent: 49 parts by weight of N,N-dimethylformamide Emulsifier: 1 part by weight of alkylaryl polyglycol ether To produce a suitable preparation of active compound, 1 part by weight of active compound is mixed with the stated amounts of solvent and emulsifier, and the concentrate is diluted with water to the desired concentration. To test for preventive activity, young plants are sprayed with the preparation of active compound at the stated rate of application. One day after this treatment, the plants are inoculated with an aqueous spore suspension of Pyrenophora teres. The plants remain for 48 hours in an incubation cabinet at 22° C. and a relative atmospheric humidity of 100%. Then the plants are placed in a greenhouse at a temperature of approximately 20° C. and a relative atmospheric humidity of approximately 80%. The test is evaluated 7-9 days after the inoculation. 0% means an efficacy which corresponds to that of the untreated control while an efficacy of 100% means that no disease is observed.

| logP [1] | Compound | Efficacy (Alternaria solani) [%] | Efficacy (Pyrenophora teres) [%] |
| --- | --- | --- | --- |
| 4.06 | Cn1nc(C(F)F)c(C(=O)N2CCCCC2c2ccc(Cl)cc2Cl)c1Cl (stereo not drawn) [Example 80] | 100 | 95 |
| 3.55 | Cn1nc(C(F)F)c(C(=O)N2CCCCC2c2ccccc2Br)c1Cl (stereo not drawn) [Example 90] | 90 | 95 |
| 4.11 | Cc1cc(C(=O)N2CCCCC2c2cccc(Br)c2)c(C)o1 (stereo not drawn) [Example 93] | 90 | 95 |
| 3.44 | CCc1nn(C)c(F)c1C(=O)N1CCCCC1c1cccc(Br)c1 (stereo not drawn) [Example 94] | 100 | 70 |
| 3.71 | Cn1nc(C(F)F)c(C(=O)N2CCCCC2c2cccc(Br)c2)c1Cl (stereo not drawn) [Example 96] | 100 | 100 |
| 3.11 | Cc1nn(C)c(F)c1C(=O)N1CCCCC1c1ccc(Br)cc1 (stereo not drawn) [Example 99] | 90 | 100 |
| 3.78 | Cn1nc(C(F)F)c(C(=O)N2CCCCC2c2ccc(Br)cc2)c1Cl (stereo not drawn) [Example 103] | 80 | 95 |
| 3.60 | Cn1nc(C(F)F)c(C(=O)N2CCCCC2c2ccc(Br)cc2)c1F (stereo not drawn) [Example 104] | 100 | 95 |
| 4.29 | Cn1nc(C(F)F)c(C(=S)N2CCCCC2c2ccc(Br)cc2)c1F (stereo not drawn) [Example 105] | 100 | 100 |
| 3.60 | Cc1nn(C)c(F)c1C(=O)N1CCCCC1c1cccc(Oc2ccccc2)c1 (stereo not drawn) [Example 113] | 94 | 90 |
| 4.18 | Cn1nc(C(F)F)c(C(=O)N2CCCCC2c2cccc(Oc3ccccc3)c2)c1Cl (stereo not drawn) [Example 114] | 90 | 80 |
| 4.39 | Cc1cc(C(=O)N2CCCCC2c2ccc3ccccc3c2)c(C)o1 (stereo not drawn) [Example 120] | 80 | 70 |
| 3.87 | Cn1nc(C(F)F)c(C(=O)N2CCCCC2c2ccc3ccccc3c2)c1Cl (stereo not drawn) [Example 121] | 80 | 90 |
| 3.13 | Cc1nn(C)c(F)c1C(=O)N1CCCCC1c1ccc(Br)s1 (stereo not drawn) [Example 124] | 95 | 100 |
| 3.51 | CCc1nn(C)c(F)c1C(=O)N1CCCCC1c1ccc(Br)s1 (stereo not drawn) [Example 125] | 90 | 80 |
| 2.54 | Cc1nn(C)c(F)c1C(=O)N1CCCCC1Cc1ccccc1 (stereo not drawn) [Example 129] | 95 | 100 |
| 3.58 | Cc1cc(C(=O)N2CCCCC2Cc2ccccc2)c(C)o1 (stereo not drawn) [Example 132] | 90 | 90 |
| 3.09 | Cn1nc(C(F)F)c(C(=O)N2CCCCC2Cc2ccccc2)c1F (stereo not drawn) [Example 134] | 100 | 100 |
| 3.87 | CCC(c1ccccc1)C1CCCCN1C(=O)c1c(C(F)F)nn(C)c1Cl (stereo not drawn) [Example 135] | 95 | 94 |
| 3.59 | CC(c1ccccc1)C1CCCCN1C(=O)c1c(C(F)F)nn(C)c1Cl (stereo not drawn) [Example 137] | 100 | 100 |
| 3.50 | Cc1nc(C(F)F)c(C(=O)N2CCCCC2Cc2ccccc2C)s1 (stereo not drawn) [Example 142] | 94 | 95 |
| 3.44 | Cc1cccc(CC2CCCCN2C(=O)c2c(C(F)F)nn(C)c2F)c1 (stereo not drawn) [Example 144] | 100 | 100 |
| 3.57 | Cc1cccc(CC2CCCCN2C(=O)c2sc(C)nc2C(F)F)c1 (stereo not drawn) [Example 145] | 75 | 80 |
| 3.46 | Cc1ccc(CC2CCCCN2C(=O)c2c(C(F)F)nn(C)c2F)cc1 (stereo not drawn) [Example 147] | 100 | 100 |
